Experiments:
[1] = target: 5-hydroxytryptamine receptor 2B (Homo sapiens, UniProt P41595); test: Displacement of [3H]LSD from human 5-HT2B receptor expressed in HEK cells by radioligand binding assay; format: cell-based
Mu-type opioid receptor = Mu-type opioid receptor (Homo sapiens, UniProt P35372); test: Displacement of [3H]DAMGO from human mu opioid receptor expressed in HEK cells by radioligand binding assay; format: cell-based
[2] = target: 5-hydroxytryptamine receptor 7 (Homo sapiens, UniProt P34969); test: Displacement of [3H]LSD from human 5-HT7 receptor expressed in HEK cells by radioligand binding assay; format: cell-based
[3] = target: T1, Alpha-2A adrenergic receptor (Homo sapiens, UniProt P08913); test: Displacement of […] from human adrenergic alpha 2A receptor expressed in MDCK cells by radioligand binding assay; format: cell-based
T1 sequence (P08913 whole entry): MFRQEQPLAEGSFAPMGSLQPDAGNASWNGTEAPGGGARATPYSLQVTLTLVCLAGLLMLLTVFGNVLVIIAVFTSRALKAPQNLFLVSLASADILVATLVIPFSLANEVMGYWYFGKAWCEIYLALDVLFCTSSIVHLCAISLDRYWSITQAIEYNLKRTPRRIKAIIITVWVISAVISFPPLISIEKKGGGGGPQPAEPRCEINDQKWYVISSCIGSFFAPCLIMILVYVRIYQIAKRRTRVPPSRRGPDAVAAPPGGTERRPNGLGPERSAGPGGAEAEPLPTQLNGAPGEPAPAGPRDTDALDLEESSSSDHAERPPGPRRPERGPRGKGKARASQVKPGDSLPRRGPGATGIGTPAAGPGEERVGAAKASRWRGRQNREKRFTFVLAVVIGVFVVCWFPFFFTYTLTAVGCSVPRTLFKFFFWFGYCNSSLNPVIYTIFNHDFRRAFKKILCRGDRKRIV

D(4) dopamine receptor = target: T2, D(4) dopamine receptor (Homo sapiens, UniProt P21917); test: Displacement of [3H]N-methylspiperone from human D4 receptor by radioligand binding assay
T2 sequence (P21917 whole entry): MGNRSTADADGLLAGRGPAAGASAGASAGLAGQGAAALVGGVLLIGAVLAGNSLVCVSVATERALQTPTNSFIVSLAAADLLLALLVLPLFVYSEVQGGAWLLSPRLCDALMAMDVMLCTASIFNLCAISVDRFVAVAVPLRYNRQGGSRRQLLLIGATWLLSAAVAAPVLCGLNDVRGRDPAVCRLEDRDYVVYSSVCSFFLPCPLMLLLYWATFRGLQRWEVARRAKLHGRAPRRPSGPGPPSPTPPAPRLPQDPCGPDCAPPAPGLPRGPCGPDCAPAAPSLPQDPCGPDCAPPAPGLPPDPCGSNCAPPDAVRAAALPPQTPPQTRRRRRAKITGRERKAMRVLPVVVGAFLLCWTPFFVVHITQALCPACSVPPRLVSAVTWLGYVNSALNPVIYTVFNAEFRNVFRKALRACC

[4] = target: Sodium-dependent dopamine transporter (Homo sapiens, UniProt Q01959); test: Displacement of [3H]WIN35428 from human DAT receptor expressed in HEK cells by radioligand binding assay; format: cell-based
Histamine H2 receptor = Histamine H2 receptor (Homo sapiens, UniProt P25021); test: Binding affinity to human histamine 2 receptor expressed in HEK cells by radioligand binding assay; format: cell-based
[5] = target: Kappa-type opioid receptor (Homo sapiens, UniProt P41145); test: Displacement of [3H]U69593 from human kappa opioid receptor expressed in HEK cells by radioligand binding assay; format: cell-based
[6] = target: Sigma non-opioid intracellular receptor 1 (Cavia porcellus, UniProt Q60492); test: Displacement of [3H]Pentazocine from guinea pig sigma-1 receptor by radioligand binding assay
[7] = target: T3, Sigma intracellular receptor 2 (Rattus norvegicus, UniProt Q5U3Y7); test: Displacement of [3H]DTG from sigma-2 receptor in rat PC12 cells by radioligand binding assay; format: cell-based
T3 sequence (Q5U3Y7 whole entry): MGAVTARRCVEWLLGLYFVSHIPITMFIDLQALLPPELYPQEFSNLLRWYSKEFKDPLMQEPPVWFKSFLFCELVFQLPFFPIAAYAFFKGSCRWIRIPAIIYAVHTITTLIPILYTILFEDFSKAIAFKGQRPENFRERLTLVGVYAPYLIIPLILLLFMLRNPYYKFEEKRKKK

Chain of 5-hydroxytryptamine receptor 2B (P41595 whole entry): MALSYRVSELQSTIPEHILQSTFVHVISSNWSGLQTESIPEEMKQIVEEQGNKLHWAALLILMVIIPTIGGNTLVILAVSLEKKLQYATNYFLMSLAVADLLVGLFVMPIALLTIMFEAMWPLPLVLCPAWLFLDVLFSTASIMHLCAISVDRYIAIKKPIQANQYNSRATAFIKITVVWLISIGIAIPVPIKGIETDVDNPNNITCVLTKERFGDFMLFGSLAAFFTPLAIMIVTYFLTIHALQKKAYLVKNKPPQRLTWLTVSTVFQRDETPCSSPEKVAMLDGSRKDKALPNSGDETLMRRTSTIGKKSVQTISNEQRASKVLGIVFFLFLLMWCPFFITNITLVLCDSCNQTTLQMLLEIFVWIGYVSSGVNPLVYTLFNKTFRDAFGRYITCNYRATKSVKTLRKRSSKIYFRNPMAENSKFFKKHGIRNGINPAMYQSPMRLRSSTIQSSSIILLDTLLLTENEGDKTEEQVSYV
Chain of Mu-type opioid receptor (P35372 whole entry): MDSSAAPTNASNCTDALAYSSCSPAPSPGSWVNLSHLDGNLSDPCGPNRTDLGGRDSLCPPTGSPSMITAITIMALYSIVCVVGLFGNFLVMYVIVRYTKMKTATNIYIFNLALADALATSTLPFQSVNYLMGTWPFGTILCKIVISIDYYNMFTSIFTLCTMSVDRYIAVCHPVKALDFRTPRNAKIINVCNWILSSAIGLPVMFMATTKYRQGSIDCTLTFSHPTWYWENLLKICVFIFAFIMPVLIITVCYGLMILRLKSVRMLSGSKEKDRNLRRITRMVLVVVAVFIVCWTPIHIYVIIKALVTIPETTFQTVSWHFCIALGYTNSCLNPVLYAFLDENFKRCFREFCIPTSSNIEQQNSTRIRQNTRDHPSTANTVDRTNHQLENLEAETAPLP
Chain of Histamine H2 receptor (P25021 whole entry): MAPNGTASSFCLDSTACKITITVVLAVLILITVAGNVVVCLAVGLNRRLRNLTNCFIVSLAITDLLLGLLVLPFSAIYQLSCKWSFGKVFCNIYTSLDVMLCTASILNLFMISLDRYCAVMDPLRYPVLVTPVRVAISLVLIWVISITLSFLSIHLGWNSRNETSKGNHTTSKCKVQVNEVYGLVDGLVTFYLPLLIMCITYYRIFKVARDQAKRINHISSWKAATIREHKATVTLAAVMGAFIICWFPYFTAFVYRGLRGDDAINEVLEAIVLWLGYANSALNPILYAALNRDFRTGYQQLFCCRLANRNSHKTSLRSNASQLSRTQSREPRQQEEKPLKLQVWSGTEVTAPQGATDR
Chain of Kappa-type opioid receptor (P41145 whole entry): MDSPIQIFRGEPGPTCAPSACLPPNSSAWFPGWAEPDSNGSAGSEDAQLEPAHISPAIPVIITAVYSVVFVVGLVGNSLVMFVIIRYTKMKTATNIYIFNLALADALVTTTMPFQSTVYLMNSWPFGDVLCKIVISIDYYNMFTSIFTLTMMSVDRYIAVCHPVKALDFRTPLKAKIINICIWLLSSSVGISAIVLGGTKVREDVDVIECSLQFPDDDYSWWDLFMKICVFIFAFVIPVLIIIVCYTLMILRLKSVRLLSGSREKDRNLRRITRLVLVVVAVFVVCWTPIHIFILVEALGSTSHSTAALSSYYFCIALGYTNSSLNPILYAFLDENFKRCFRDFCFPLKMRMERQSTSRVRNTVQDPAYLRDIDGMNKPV
Chain of 5-hydroxytryptamine receptor 7 (P34969 whole entry): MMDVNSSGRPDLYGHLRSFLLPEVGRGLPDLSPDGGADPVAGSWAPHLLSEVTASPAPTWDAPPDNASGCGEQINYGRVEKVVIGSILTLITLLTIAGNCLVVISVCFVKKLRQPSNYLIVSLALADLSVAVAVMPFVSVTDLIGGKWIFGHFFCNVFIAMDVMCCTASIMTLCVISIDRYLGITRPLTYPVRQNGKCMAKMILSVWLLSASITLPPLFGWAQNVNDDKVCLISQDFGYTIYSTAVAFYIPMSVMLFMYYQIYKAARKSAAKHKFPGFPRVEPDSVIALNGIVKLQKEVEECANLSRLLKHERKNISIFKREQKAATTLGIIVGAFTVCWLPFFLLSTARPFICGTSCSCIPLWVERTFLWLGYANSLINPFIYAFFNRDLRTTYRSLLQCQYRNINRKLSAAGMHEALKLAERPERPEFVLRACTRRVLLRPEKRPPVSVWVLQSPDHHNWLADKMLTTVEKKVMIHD
Chain of Sigma non-opioid intracellular receptor 1 (Q60492 whole entry): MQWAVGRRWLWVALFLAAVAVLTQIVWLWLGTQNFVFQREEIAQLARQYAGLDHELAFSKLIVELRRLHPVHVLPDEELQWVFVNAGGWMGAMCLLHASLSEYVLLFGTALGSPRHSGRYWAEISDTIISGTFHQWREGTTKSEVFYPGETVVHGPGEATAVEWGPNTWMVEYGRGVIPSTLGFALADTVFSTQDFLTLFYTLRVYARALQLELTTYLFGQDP
Chain of Sodium-dependent dopamine transporter (Q01959 whole entry): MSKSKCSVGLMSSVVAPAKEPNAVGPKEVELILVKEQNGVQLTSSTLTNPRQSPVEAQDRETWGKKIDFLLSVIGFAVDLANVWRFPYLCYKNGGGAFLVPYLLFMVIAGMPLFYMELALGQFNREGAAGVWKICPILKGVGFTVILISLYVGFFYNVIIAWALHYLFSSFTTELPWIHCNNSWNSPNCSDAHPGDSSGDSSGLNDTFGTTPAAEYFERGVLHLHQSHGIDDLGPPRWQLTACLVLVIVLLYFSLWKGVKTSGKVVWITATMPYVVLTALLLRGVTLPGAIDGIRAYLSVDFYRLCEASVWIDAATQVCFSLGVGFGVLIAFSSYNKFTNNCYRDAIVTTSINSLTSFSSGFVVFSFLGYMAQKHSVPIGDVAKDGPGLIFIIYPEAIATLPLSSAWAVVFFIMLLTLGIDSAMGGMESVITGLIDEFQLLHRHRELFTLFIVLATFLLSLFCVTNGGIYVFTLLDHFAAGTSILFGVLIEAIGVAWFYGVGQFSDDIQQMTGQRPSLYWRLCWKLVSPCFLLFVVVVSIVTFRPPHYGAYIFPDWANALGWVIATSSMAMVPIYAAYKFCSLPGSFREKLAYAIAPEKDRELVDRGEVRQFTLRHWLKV

Row | Structure (SMILES) | Ki [1] | Ki (Mu-type opioid receptor) | Ki [2] | Ki [3] | Ki (D(4) dopamine receptor) | Ki [4] | Ki (Histamine H2 receptor) | Ki [5] | Ki [6] | Ki [7]
1 | Cc1cccc(C)c1N1C(=O)CNC2(CCN(C)CC2)C1=O | 0.742 µM | 10 µM |  |  |  |  |  |  |  | 
2 | CC1=NC2(CCN(C)CC2)C(=O)N(c2c(C)cccc2C)C1=O | 0.231 µM |  | 2.77 µM | 3.36 µM | 1.28 µM | 2.56 µM | 0.823 µM | 1.71 µM | 0.0086 µM | 0.696 µM
3 | Cc1cccc(C)c1N1C(=O)[C@H](CO)NC2(CCN(C)CC2)C1=O | 2.05 µM | 1.63 µM |  |  |  |  |  |  |  | 
4 | Cc1cccc(C)c1N1C(=O)[C@H](CC2CNc3ccccc32)NC2(CCN(C)CC2)C1=O (stereo partly specified) | 0.84 µM | 0.993 µM |  |  |  |  | 0.546 µM |  |  | 

— ChEMBL document CHEMBL4422623, “Synthesis of spiro-2,6-dioxopiperazine and spiro-2,6-dioxopyrazine scaffolds using amino acids in a three-component reaction to generate potential Sigma-1 (σ1) receptor selective ligands” (Eur J Med Chem, 2019)
